Laboratory results reported in patent US5770591A, “Bis-platinum complexes as chemotherapeutic agents” (The University of Vermont and State Agricultural College, priority 1994, dated 1998).
pIC50: −log10 of the molar value. Where two headings read alike, the source gives them in different places.

How the values were obtained:
[1] = system: L-1210/0 murine leukemia cells; experiment: In vitro cytotoxic activity (ID50, 50% inhibition of cell growth), L-1210/0; type: cell-based; conditions: Table II; solvent H2O, 10% DMSO or DMF per complex
[2] = system: L-1210/DDP murine leukemia cells; experiment: In vitro cytotoxic activity (ID50), L-1210/DDP (resistant to cisplatin); type: cell-based; conditions: Table II; solvent H2O, 10% DMSO or DMF per complex
[3] = system: L-1210/dach murine leukemia cells; experiment: In vitro cytotoxic activity (ID50), L-1210/dach; type: cell-based; conditions: Table II; solvent H2O, 10% DMSO or DMF per complex
Experimental: The tests were carried out in vitro according to the procedures outlined by M. P. Hacker et al in Cancer Research, 1985, 45, 4748.

[4] = treatment of patients; cited from earlier work
[5] = system: tumors; conditions: cited from earlier work
[6] = system: L-1210 murine leukemia cell lines
Experimental: The biological assays were performed as previously described by method of Hacker et al. Cancer Research, 1985, 45, 4748. Complexes were all dissolved in 10% DMSO.

[7] = system: L-1210/0 murine leukemia cells; experiment: In vitro cytotoxic activity (ID50, 50% inhibition of cell growth), L-1210/0; type: cell-based; conditions: Table III; dissolved in 10% DMSO; read-out: ID50 L-1210/O
Excerpt: (§1) where py=pyridine; quin=quinoline; isoquin=isoquinoline; Meim=methylimidazole. […] Complexes were all dissolved in 10% DMSO.

[8] = system: L-1210/DDP murine leukemia cells; experiment: In vitro cytotoxic activity (ID50), L-1210/DDP (resistant to cisplatin); type: cell-based; conditions: Table III; dissolved in 10% DMSO
Excerpt: as §1

[9] = system: DNA; conditions: background, cited from earlier work

Compound	pIC50 [1]	pIC50 [2]	pIC50 [3]	pIC50 [7]	pIC50 [8]	also measured
N.N.NCCCCN.[Cl][Pt][Cl].[Cl][Pt][Cl] [BisPt4, [{cis-PtCl2 (NH3)}2 (H2 N(CH2)4 NH2)]]	6.55	5.66	6.47			
N.N.NCCCCN.O=C1CC(=O)[O][Pt][O]1.O=C1CC(=O)[O][Pt][O]1 [BisPtmal, [{cis-Pt(mal)(NH3)}2 (H2 N(CH2)4 NH2)]]	6.03	5.30	5.59			
N.N.O=C([O-])C1(C(=O)[O-])CCC1.[Pt+2] [Carboplatin, [Pt(NH3)2 (CBDCA)]]						Nephrotoxicity [4]: marked reduction in the nephrotoxic effects; Antitumor activity / cytotoxic effect ([5]; background): effective against the same spectrum of carcinomas as cisplatin
N.N.N.N.NCCCCN.[Cl-].[Cl-].[Cl][Pt+].[Cl][Pt+] [Example 1, [{trans-PtCl(NH3)2}2 H2 N(CH2)4 NH2]Cl2]	5.47	6.05	5.27			Cytotoxic activity (in words) [6]: highly active cytotoxic agents
N.N.NCCCCN.[Cl][Pt][Cl].[Cl][Pt][Cl] [Example 3, [{cis-PtCl2 (NH3)}H2 N(CH2)4 NH2 {trans-PtCl2 (NH3)}]]	6.12	5.47	5.59			
N.N.[Cl][Pt][Cl] [NH3 NH3 cis, cis-[PtCl2 (NH3)2]]				6.70	5.10	
N.N.[Cl][Pt+2][Cl] [NH3 NH3 trans, trans-[PtCl2 (NH3)2]]				< 4.70	< 4.30	Formation of 1,2-intrastrand crosslink [9]: cannot form the 1,2-intrastrand crosslink; DNA binding ([9]; listed as trans-DDP): do bind to DNA; DNA binding ([9]; listed as trans-[Pt(NH3)2 Cl2 ]): bind avidly to the DNA molecule; Antitumor activity / cytotoxic effect ([5]; background, listed as trans-DDP): do not exhibit antitumor activity; Antitumor activity / cytotoxic effect ([5]; background, listed as trans-[Pt(NH3)2 Cl2 ]): no cytotoxic effect
N.N.N.[Cl][Pt+] [[Pt(NH3)3 Cl]^+]						DNA binding [9]: bind avidly to the DNA molecule; Formation of 1,2-intrastrand crosslink [9]: cannot form the 1,2-intrastrand crosslink; DNA binding ([9]; listed as [(Pt(NH3)3 Cl]^+)): do bind to DNA; Antitumor activity / cytotoxic effect ([5]; background): no cytotoxic effect; Antitumor activity / cytotoxic effect ([5]; background, listed as [(Pt(NH3)3 Cl]^+)): do not exhibit antitumor activity
Cl.Cl.[Pt].c1ccncc1.c1ccncc1 [py py cis]				5.05	4.90	
[Cl][Pt][Cl].c1ccncc1.c1ccncc1 [py py trans, trans-[PtCl2 (pyridine)2]]				6.21	6.10	Cytotoxic activity (in words) [6]: as cytotoxic as cisplatin; Cross-resistance with the parent cisplatin ([6]; Table III in vitro data): non-cross-resistant with the parent cisplatin
[Pt(dien)Cl]Cl	< 4.70	< 4.70	< 4.70			Cytotoxic activity (in words) [6]: totally inactive; DNA binding [9]: do bind to DNA; Antitumor activity / cytotoxic effect [5]: do not exhibit antitumor activity
[PtCl2 (iso-quinoline)(DMSO)] [iso-quin DMSO trans]				5.56	5.93	
[PtCl2 (quinoline)(DMSO)] [quin DMSO trans]				6.40	5.80	
trans-[PtCl2 (pyridine)(DMSO)] [py DMSO trans]				5.18	5.25	
